Experimental data: patent US11357779B2 (G1 Therapeutics, Inc., priority 2018, dated 2022)
Where two headings read alike, the source gives them in different places.

Test: Noncompartmental pharmacokinetic parameters (Cmax, Tmax, AUC, Racc) in QD and BID cohorts of Form B
Assay type: in vivo, human
Conditions: human, plasma, oral
Experimental: Analysis of plasma concentration versus time data for calculation of standard pharmacokinetic (PK) parameters following oral administration was conducted using Phoenix WinNonlin version 6.3 using actual blood sampling times.
The following pharmacokinetic parameters were calculated from the concentration versus time data obtained in Example 1 for each of the above QD (200 mg, 300 mg, 400 mg, 500 mg, or 650 mg dosed) and BID (100 mg, 150 mg, or 200 mg doses) Form B of Compound II dosage cohorts: • Cmax—the observed peak plasma concentration determined from the plasma concentration versus time data obtained on Day 1 and Day 29, as applicable; • Tmax—the time to reach the observed peak plasma concentration from the plasma concentration versus time data obtained on Day 1 and Day 29, as applicable; • AUC—area under the plasma concentration versus time curve during a dosing interval on Day 1 and Day 29, as applicable; and • Racc—accumulation ratio calculated as AUCDay 29/AUCDay 1.

SMILES: CC(C)N1CCN(c2ccc(Nc3ncc4cc5n(c4n3)C3(CCCCC3)CNC5=O)nc2)CC1 [Compound I, 2′-((5-(4-isopropylpiperazin-1-yl)pyridin-2-yl)amino)-7′,8′-dihydro-6′H-spiro[cyclohexane-1,9′-pyrazino[1′,2′:1,5]pyrrolo[2,3-d]pyrimidin]-6′-one]
- AUC(0-t) (100 mg, Cohort 6, 100 mg BID of Form B, Day 1, read-out: AUClast, Mean): 59.7 ng·h/mL
- AUC(0-t) (100 mg, Cohort 6, 100 mg BID of Form B, Day 1, read-out: AUClast, Median): 53.1 ng·h/mL
- Cmax (100 mg, Cohort 6, 100 mg BID of Form B, Day 1, read-out: Cmax, Mean): 10.2 ng/mL
- Cmax (100 mg, Cohort 6, 100 mg BID of Form B, Day 1, read-out: Cmax, Median): 8.95 ng/mL
- Tmax (100 mg, Cohort 6, 100 mg BID of Form B, Day 1, read-out: Tmax, Mean): 3.17 h
- Tmax (100 mg, Cohort 6, 100 mg BID of Form B, Day 1, read-out: Tmax, Median): 3 h
- AUC(0-t) (100 mg, Compound I, 100 mg BID of Form B, Cohort 6, Day 29, read-out: AUClast (Mean)): 101 ng·h/mL
- AUC(0-t) (100 mg, Compound I, 100 mg BID of Form B, Cohort 6, Day 29, read-out: AUClast (Median)): 88.2 ng·h/mL
- Cmax (100 mg, Compound I, 100 mg BID of Form B, Cohort 6, Day 29, read-out: Cmax (Mean)): 12.3 ng/mL
- Cmax (100 mg, Compound I, 100 mg BID of Form B, Cohort 6, Day 29, read-out: Cmax (Median)): 11.8 ng/mL
- Tmax (100 mg, Compound I, 100 mg BID of Form B, Cohort 6, Day 29, read-out: Tmax (Mean)): 4.4 h
- Tmax (100 mg, Compound I, 100 mg BID of Form B, Cohort 6, Day 29, read-out: Tmax (Median)): 3 h
- AUC(0-t) (150 mg, Compound I, 150 mg BID of Form B, Cohort 7, Day 1, read-out: AUClast (Mean)): 130 ng·h/mL
- AUC(0-t) (150 mg, Compound I, 150 mg BID of Form B, Cohort 7, Day 1, read-out: AUClast (Median)): 141 ng·h/mL
- Cmax (150 mg, Compound I, 150 mg BID of Form B, Cohort 7, Day 1, read-out: Cmax (Mean)): 21.7 ng/mL
- Cmax (150 mg, Compound I, 150 mg BID of Form B, Cohort 7, Day 1, read-out: Cmax (Median)): 24.6 ng/mL
- Tmax (150 mg, Compound I, 150 mg BID of Form B, Cohort 7, Day 1, read-out: Tmax (Mean)): 3.67 h
- Tmax (150 mg, Compound I, 150 mg BID of Form B, Cohort 7, Day 1, read-out: Tmax (Median)): 4 h
- AUC(0-t) (150 mg, Compound I, 150 mg BID of Form B, Cohort 7, Day 29, read-out: AUClast (Mean)): 455 ng·h/mL
- AUC(0-t) (150 mg, Compound I, 150 mg BID of Form B, Cohort 7, Day 29, read-out: AUClast (Median)): 334 ng·h/mL
- Cmax (150 mg, Compound I, 150 mg BID of Form B, Cohort 7, Day 29, read-out: Cmax (Mean)): 50.2 ng/mL
- Cmax (150 mg, Compound I, 150 mg BID of Form B, Cohort 7, Day 29, read-out: Cmax (Median)): 36.9 ng/mL
- Tmax (150 mg, Compound I, 150 mg BID of Form B, Cohort 7, Day 29, read-out: Tmax (Mean)): 4 h
- Tmax (150 mg, Compound I, 150 mg BID of Form B, Cohort 7, Day 29, read-out: Tmax (Median)): 4 h
- AUC(0-t) (200 mg, Cohort 1, 200 mg QD of Form B, Day 1, read-out: AUClast, Mean): 215 ng·h/mL
- AUC(0-t) (200 mg, Cohort 1, 200 mg QD of Form B, Day 1, read-out: AUClast, Median): 232 ng·h/mL
- Cmax (200 mg, Cohort 1, 200 mg QD of Form B, Day 1, read-out: Cmax, Mean): 25.5 ng/mL
- Cmax (200 mg, Cohort 1, 200 mg QD of Form B, Day 1, read-out: Cmax, Median): 27 ng/mL
- Tmax (200 mg, Cohort 1, 200 mg QD of Form B, Day 1, read-out: Tmax, Mean): 4.17 h
- Tmax (200 mg, Cohort 1, 200 mg QD of Form B, Day 1, read-out: Tmax, Median): 4 h
- AUC(0-t) (200 mg, Compound I, 200 mg BID of Form B, Cohort 7, Day 1, read-out: AUClast (Mean)): 118 ng·h/mL
- AUC(0-t) (200 mg, Compound I, 200 mg BID of Form B, Cohort 7, Day 1, read-out: AUClast (Median)): 125 ng·h/mL
- Cmax (200 mg, Compound I, 200 mg BID of Form B, Cohort 7, Day 1, read-out: Cmax (Mean)): 17.3 ng/mL
- Cmax (200 mg, Compound I, 200 mg BID of Form B, Cohort 7, Day 1, read-out: Cmax (Median)): 17.6 ng/mL
- Tmax (200 mg, Compound I, 200 mg BID of Form B, Cohort 7, Day 1, read-out: Tmax (Mean)): 5 h
- Tmax (200 mg, Compound I, 200 mg BID of Form B, Cohort 7, Day 1, read-out: Tmax (Median)): 5 h
- AUC(0-t) (200 mg, Compound I, 200 mg BID of Form B, Cohort 8, Day 29, read-out: AUClast (Mean)): 197 ng·h/mL
- AUC(0-t) (200 mg, Compound I, 200 mg BID of Form B, Cohort 8, Day 29, read-out: AUClast (Median)): 205 ng·h/mL
- Cmax (200 mg, Compound I, 200 mg BID of Form B, Cohort 8, Day 29, read-out: Cmax (Mean)): 26.3 ng/mL
- Cmax (200 mg, Compound I, 200 mg BID of Form B, Cohort 8, Day 29, read-out: Cmax (Median)): 30.5 ng/mL
- Tmax (200 mg, Compound I, 200 mg BID of Form B, Cohort 8, Day 29, read-out: Tmax (Mean)): 6.67 h
- Tmax (200 mg, Compound I, 200 mg BID of Form B, Cohort 8, Day 29, read-out: Tmax (Median)): 4 h
- AUC(0-t) (200 mg, Compound I, 200 mg QD of Form B, Cohort 1, Day 29, read-out: AUClast (Mean)): 229 ng·h/mL
- AUC(0-t) (200 mg, Compound I, 200 mg QD of Form B, Cohort 1, Day 29, read-out: AUClast (Median)): 227 ng·h/mL
- Cmax (200 mg, Compound I, 200 mg QD of Form B, Cohort 1, Day 29, read-out: Cmax (Mean)): 20.4 ng/mL
- Cmax (200 mg, Compound I, 200 mg QD of Form B, Cohort 1, Day 29, read-out: Cmax (Median)): 21.3 ng/mL
- Tmax (200 mg, Compound I, 200 mg QD of Form B, Cohort 1, Day 29, read-out: Tmax (Mean)): 4.2 h
- Tmax (200 mg, Compound I, 200 mg QD of Form B, Cohort 1, Day 29, read-out: Tmax (Median)): 4 h
- AUC(0-t) (300 mg, Cohort 2, 300 mg QD of Form B, Day 1, upon exclusion of data for patient that vomited immediately after dosing, read-out: AUClast, Mean): 567 ng·h/mL
